{"source": "patent US9079913B2", "about": "“Spiro-oxindole MDM2 antagonists” (The Regents of the University of Michigan, priority 2009, dated 2015)", "key": {"[1]": {"assay": "In vitro microsomal stability, dog", "assay_type": "in vitro ADME", "conditions": "for Microsomal stability, % remaining: Dog microsomes"}, "[2]": {"assay": "In vitro microsomal stability, rat", "assay_type": "in vitro ADME", "conditions": "for microsomal stability (in words) / % of compound remaining when incubated in rat liver microsomes with NADPH: rat liver microsomes"}, "[3]": {"assay": "In vitro microsomal stability, human", "assay_type": "in vitro ADME"}, "[4]": {"assay": "Microsomal stability study, negative control incubation", "assay_type": "in vitro ADME"}, "[5]": {"tested_on": "Isogenic HCT-116 colon cancer cell lines", "assay": "cells", "assay_type": "cell-based", "conditions": "Homo sapiens, cell growth", "protocol": "Cells were seeded in 96-well flat bottom cell culture plates at a density of 2−3×10^3 cells/well with compounds and incubated for 4 days."}, "[6]": {"target": "recombinant human His-tagged MDM2 protein (residues 1-118) (Homo sapiens (Human), UniProt Q00987)", "sequence (Q00987 1-118)": "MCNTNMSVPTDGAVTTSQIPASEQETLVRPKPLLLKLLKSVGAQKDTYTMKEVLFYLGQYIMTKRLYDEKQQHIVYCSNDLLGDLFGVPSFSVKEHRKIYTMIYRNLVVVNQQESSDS", "assay": "Fluorescence-polarization MDM2 binding assay;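 also: fluorescence polarization read after three hours of incubation in potassium phosphate buffer containing bovine gamma globulin and Triton X-100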", "conditions": "Table 19A; FP binding assay; read-out: MDM2 IC50"}, "[7]": {"assay": "Pharmacokinetic studies in rats", "assay_type": "in vivo, rat", "method": "Pharmacokinetic studies on MDM2 inhibitors were carried out in rat. For comparison, the MDM2 inhibitor, AT-219, was also studied."}, "[8]": {"tested_on": "cancer cell lines with wild-type p53 / mutated or deleted p53 (ATCC)", "assay": "Cell growth assay (WST-8), other cancer cell lines", "assay_type": "cell-based", "conditions": "Homo sapiens"}, "[9]": {"conditions": "rat, plasma, male rats, oral dose 15 mg/kg"}}, "note": "Read-outs that look alike come from different tables or passages of the source."}
{"smiles": "CC(C)(C)C[C@H]1N[C@@H](C(=O)NCC[C@H](O)CO)[C@H](c2cccc(Cl)c2F)[C@@]12C(=O)Nc1cc(Cl)ccc12", "note": "[MI-147, reference compound]", "values": [{"measurement": "Microsomal stability, % remaining", "setting": "[1]; 0 min", "result": 100.00, "unit": "%"}, {"measurement": "Microsomal stability, % remaining", "setting": "[1]; 5 min", "result": 77.84, "unit": "%"}, {"measurement": "Microsomal stability, % remaining", "setting": "[1]; 10 min", "result": 47.98, "unit": "%"}, {"measurement": "Microsomal stability, % remaining", "setting": "[1]; 15 min", "result": 44.83, "unit": "%"}, {"measurement": "Microsomal stability, % remaining", "setting": "[1]; 30 min", "result": 21.52, "unit": "%"}, {"measurement": "Microsomal stability, % remaining", "setting": "[1]; 45 min", "result": 17.08, "unit": "%"}, {"measurement": "Microsomal stability, % remaining", "setting": "[1]; 60 min", "result": 12.15, "unit": "%"}, {"measurement": "microsomal stability (in words)", "setting": "[1]; dog microsomes", "result": "metabolized fairly rapidly"}, {"measurement": "Microsomal stability, % remaining", "setting": "[2]; Rat microsomes, 0 min", "result": 100.00, "unit": "%"}, {"measurement": "Microsomal stability, % remaining", "setting": "[2]; Rat microsomes, 5 min", "result": 68.05, "unit": "%"}, {"measurement": "Microsomal stability, % remaining", "setting": "[2]; Rat microsomes, 10 min", "result": 31.04, "unit": "%"}, {"measurement": "Microsomal stability, % remaining", "setting": "[2]; Rat microsomes, 15 min", "result": 16.85, "unit": "%"}, {"measurement": "Microsomal stability, % remaining", "setting": "[2]; Rat microsomes, 30 min", "result": 6.18, "unit": "%"}, {"measurement": "Microsomal stability, % remaining", "setting": "[2]; Rat microsomes, 45 min", "result": 4.40, "unit": "%"}, {"measurement": "Microsomal stability, % remaining", "setting": "[2]; Rat microsomes, 60 min", "result": 3.43, "unit": "%"}, {"measurement": "microsomal stability (in words)", "setting": "[2]", "result": "metabolized fairly rapidly"}, {"measurement": "Microsomal stability, % remaining", "setting": "[3]; Human microsomes, 0 min", "result": 100.00, "unit": "%"}, {"measurement": "Microsomal stability, % remaining", "setting": "[3]; Human microsomes, 5 min", "result": 78.23, "unit": "%"}, {"measurement": "Microsomal stability, % remaining", "setting": "[3]; Human microsomes, 10 min", "result": 58.01, "unit": "%"}, {"measurement": "Microsomal stability, % remaining", "setting": "[3]; Human microsomes, 15 min", "result": 41.59, "unit": "%"}, {"measurement": "Microsomal stability, % remaining", "setting": "[3]; Human microsomes, 30 min", "result": 19.67, "unit": "%"}, {"measurement": "Microsomal stability, % remaining", "setting": "[3]; Human microsomes, 45 min", "result": 10.81, "unit": "%"}, {"measurement": "Microsomal stability, % remaining", "setting": "[3]; Human microsomes, 60 min", "result": 7.18, "unit": "%"}, {"measurement": "microsomal stability (in words)", "setting": "[3]; human liver microsomes", "result": "metabolized fairly rapidly"}, {"measurement": "Microsomal stability, % remaining", "setting": "[4]; 0 min", "result": 100.00, "unit": "%"}, {"measurement": "Microsomal stability, % remaining", "setting": "[4]; 5 min", "result": 94.73, "unit": "%"}, {"measurement": "Microsomal stability, % remaining", "setting": "[4]; 10 min", "result": 90.77, "unit": "%"}, {"measurement": "Microsomal stability, % remaining", "setting": "[4]; 15 min", "result": 93.43, "unit": "%"}, {"measurement": "Microsomal stability, % remaining", "setting": "[4]; 30 min", "result": 94.14, "unit": "%"}, {"measurement": "Microsomal stability, % remaining", "setting": "[4]; 45 min", "result": 91.07, "unit": "%"}, {"measurement": "Microsomal stability, % remaining", "setting": "[4]; 60 min", "result": 85.38, "unit": "%"}]}
{"smiles": "CC(C)(C)C[C@H]1N[C@@H](C(=O)NCC[C@H](O)CN2CC[C@@H](O)C2)[C@H](c2cccc(Cl)c2)[C@@]12C(=O)Nc1cc(Cl)c(F)cc12", "note": "[MI-519-29]", "values": [{"measurement": "IC50", "setting": "[5]; HCT-116, read-out: HCT-116 (p53-/-) IC50, Table 19A, HCT-116 p53-/-", "result": "> 10", "unit": "µM"}, {"measurement": "IC50", "setting": "[5]; HCT-116, read-out: HCT-116 (p53 wild-type) IC50, Table 19A, HCT-116 p53 wild-type", "result": "< 5", "unit": "µM"}, {"measurement": "IC50", "setting": "[6]", "result": "< 1", "unit": "µM"}, {"measurement": "oral bioavailability / oral pharmacokinetics in rats (in words)", "setting": "[7]; oral dosing, rats", "result": "much inferior oral pharmacokinetic parameters"}, {"measurement": "bioavailability", "setting": "[7]; [9]", "result": "< 1", "unit": "%"}, {"measurement": "half-life", "setting": "[7]; [9]", "result": "6.9 ± 7.5", "unit": "h"}, {"measurement": "AUC(0-t)", "setting": "[7]; rat, plasma, male rats, oral dose 15 mg/kg, read-out: AUC(0-t)", "result": "28000 ± 15000", "unit": "ng·h/mL"}, {"measurement": "Cmax", "setting": "[7]; rat, plasma, male rats, oral dose 15 mg/kg, read-out: Cmax", "result": "51 ± 30", "unit": "ng/mL"}, {"measurement": "Microsomal stability, % remaining", "setting": "[2]; Rat Microsome, same batch, 0 min", "result": 100.00, "unit": "%"}, {"measurement": "Microsomal stability, % remaining", "setting": "[2]; Rat Microsome, same batch, 5 min", "result": 93.42, "unit": "%"}, {"measurement": "Microsomal stability, % remaining", "setting": "[2]; Rat Microsome, same batch, 10 min", "result": 84.91, "unit": "%"}, {"measurement": "Microsomal stability, % remaining", "setting": "[2]; Rat Microsome, same batch, 15 min", "result": 82.81, "unit": "%"}, {"measurement": "Microsomal stability, % remaining", "setting": "[2]; Rat Microsome, same batch, 30 min", "result": 70.75, "unit": "%"}, {"measurement": "Microsomal stability, % remaining", "setting": "[2]; Rat Microsome, same batch, 45 min", "result": 71.89, "unit": "%"}, {"measurement": "Microsomal stability, % remaining", "setting": "[2]; Rat Microsome, same batch, 60 min", "result": 69.91, "unit": "%"}, {"measurement": "microsomal stability (in words)", "setting": "[2]", "result": "improved stability over MI-219"}, {"measurement": "% of compound remaining when incubated in rat liver microsomes with NADPH", "setting": "[2]; 0 min", "result": 100.00, "unit": "%"}, {"measurement": "% of compound remaining when incubated in rat liver microsomes with NADPH", "setting": "[2]; 5 min", "result": 93.42, "unit": "%"}, {"measurement": "% of compound remaining when incubated in rat liver microsomes with NADPH", "setting": "[2]; 10 min", "result": 84.91, "unit": "%"}, {"measurement": "% of compound remaining when incubated in rat liver microsomes with NADPH", "setting": "[2]; 15 min", "result": 82.81, "unit": "%"}, {"measurement": "% of compound remaining when incubated in rat liver microsomes with NADPH", "setting": "[2]; 30 min", "result": 70.75, "unit": "%"}, {"measurement": "% of compound remaining when incubated in rat liver microsomes with NADPH", "setting": "[2]; 45 min", "result": 71.89, "unit": "%"}, {"measurement": "% of compound remaining when incubated in rat liver microsomes with NADPH", "setting": "[2]; 60 min", "result": 69.91, "unit": "%"}, {"measurement": "half-life", "setting": "[2]; rat, liver microsomes, rat liver microsomes with NADPH", "result": 1.02, "unit": "h"}, {"measurement": "Microsomal stability, % remaining", "setting": "[3]; Human Microsome, same batch, 0 min", "result": 100.00, "unit": "%"}, {"measurement": "Microsomal stability, % remaining", "setting": "[3]; Human Microsome, same batch, 5 min", "result": 70.67, "unit": "%"}, {"measurement": "Microsomal stability, % remaining", "setting": "[3]; Human Microsome, same batch, 10 min", "result": 56.31, "unit": "%"}, {"measurement": "Microsomal stability, % remaining", "setting": "[3]; Human Microsome, same batch, 15 min", "result": 49.52, "unit": "%"}, {"measurement": "Microsomal stability, % remaining", "setting": "[3]; Human Microsome, same batch, 30 min", "result": 45.48, "unit": "%"}, {"measurement": "Microsomal stability, % remaining", "setting": "[3]; Human Microsome, same batch, 45 min", "result": 40.08, "unit": "%"}, {"measurement": "Microsomal stability, % remaining", "setting": "[3]; Human Microsome, same batch, 60 min", "result": 35.28, "unit": "%"}, {"measurement": "% of compound remaining when incubated in human liver microsomes with NADPH", "setting": "[3]; human liver microsomes, 0 min", "result": 100.00, "unit": "%"}, {"measurement": "% of compound remaining when incubated in human liver microsomes with NADPH", "setting": "[3]; human liver microsomes, 5 min", "result": 70.67, "unit": "%"}, {"measurement": "% of compound remaining when incubated in human liver microsomes with NADPH", "setting": "[3]; human liver microsomes, 10 min", "result": 56.31, "unit": "%"}, {"measurement": "% of compound remaining when incubated in human liver microsomes with NADPH", "setting": "[3]; human liver microsomes, 15 min", "result": 49.52, "unit": "%"}, {"measurement": "% of compound remaining when incubated in human liver microsomes with NADPH", "setting": "[3]; human liver microsomes, 30 min", "result": 45.48, "unit": "%"}, {"measurement": "% of compound remaining when incubated in human liver microsomes with NADPH", "setting": "[3]; human liver microsomes, 45 min", "result": 40.08, "unit": "%"}, {"measurement": "% of compound remaining when incubated in human liver microsomes with NADPH", "setting": "[3]; human liver microsomes, 60 min", "result": 35.28, "unit": "%"}, {"measurement": "half-life", "setting": "[3]; human, liver microsomes, human liver microsomes with NADPH", "result": 0.201, "unit": "h"}, {"measurement": "IC50", "setting": "[8]; LNCaP, Table 19A, LNCAP cells, p53 wild-type, cell growth, read-out: LNCAP (p53 wild-type) IC50", "result": "< 5", "unit": "µM"}, {"measurement": "IC50", "setting": "[8]; PC-3, Table 19A, PC-3 cells, deleted p53, cell growth, read-out: PC-3 (deleted p53) IC50", "result": "> 10", "unit": "µM"}]}
